Data as given in publication PMC10157890, “Lysine Deacetylase Substrate Selectivity: Distinct Interaction Surfaces Drive Positive and Negative Selection for Residues Following Acetyllysine” (Biochemistry, 2023).

Assays:
[1] = biological target: T1, full-length human KDAC6 (Homo sapiens, UniProt Q9UBN7); assay: Activity of KDAC6 with putative substrate peptides (verification of substrate preferences); type: biochemical; settings: endpoint, 100 μM peptide, buffer also containing 100 mM KCl; for specific activity, KDAC6 with putative substrates: 50–200 nM KDAC, 25 °C, pH 7.6, 15–60 min, average ± SD, SD; for specific activity, KDAC6 with putative substrates (no activity above limit): limit of reliable detection 0.0013 s^–1
T1 construct: A pFastbac1 construct containing full-length human KDAC6 (UniProtKB Q9UBN7) with a C-terminal His6 tag; His6 (C); made in house; host or cells: ExpiSf9 insect cells (baculovirus)
T1 sequence (Q9UBN7 1-1215): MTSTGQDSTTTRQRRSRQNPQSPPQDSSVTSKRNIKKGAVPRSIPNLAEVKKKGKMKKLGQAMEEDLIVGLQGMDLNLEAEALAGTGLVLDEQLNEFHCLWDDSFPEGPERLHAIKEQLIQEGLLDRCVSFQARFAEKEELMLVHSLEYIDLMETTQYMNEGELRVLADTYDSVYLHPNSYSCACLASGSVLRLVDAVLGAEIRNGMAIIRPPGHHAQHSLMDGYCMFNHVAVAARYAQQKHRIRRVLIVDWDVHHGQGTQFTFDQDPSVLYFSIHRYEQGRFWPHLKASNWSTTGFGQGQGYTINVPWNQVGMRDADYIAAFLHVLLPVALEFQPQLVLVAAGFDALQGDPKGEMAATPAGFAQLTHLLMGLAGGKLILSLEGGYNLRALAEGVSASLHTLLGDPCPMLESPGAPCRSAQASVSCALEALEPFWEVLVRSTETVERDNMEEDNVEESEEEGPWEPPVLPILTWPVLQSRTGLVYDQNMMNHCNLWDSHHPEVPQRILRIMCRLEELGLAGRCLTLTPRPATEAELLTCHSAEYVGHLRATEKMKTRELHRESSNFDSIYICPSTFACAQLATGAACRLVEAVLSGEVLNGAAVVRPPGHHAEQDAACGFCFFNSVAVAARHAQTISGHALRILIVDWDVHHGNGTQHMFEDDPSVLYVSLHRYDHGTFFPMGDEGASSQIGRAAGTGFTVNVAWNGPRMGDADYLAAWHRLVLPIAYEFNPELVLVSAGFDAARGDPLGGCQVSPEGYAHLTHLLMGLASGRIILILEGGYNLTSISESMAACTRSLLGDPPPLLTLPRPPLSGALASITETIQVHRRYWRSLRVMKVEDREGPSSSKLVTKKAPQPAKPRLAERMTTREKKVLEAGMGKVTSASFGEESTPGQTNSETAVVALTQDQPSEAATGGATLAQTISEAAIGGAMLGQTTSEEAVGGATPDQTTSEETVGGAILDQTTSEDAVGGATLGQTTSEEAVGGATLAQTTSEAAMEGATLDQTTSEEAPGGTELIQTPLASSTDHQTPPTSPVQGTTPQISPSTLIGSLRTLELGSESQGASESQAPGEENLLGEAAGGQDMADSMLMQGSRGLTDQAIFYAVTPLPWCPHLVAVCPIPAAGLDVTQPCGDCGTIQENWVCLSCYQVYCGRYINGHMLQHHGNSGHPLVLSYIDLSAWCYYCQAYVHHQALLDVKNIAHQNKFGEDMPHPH
Procedure: (§1) Peptide substrates were synthesized to >95% purity (GenScript) with N-terminal acetylation and C-terminal amidation. For endpoint experiments, 100 μM peptide substrates were reacted with 50–200 nM KDAC at 25 °C at pH 7.6 for 15–60 min. Deacetylation was measured using a fluorescamine-based assay that was previously described in detail.[18] Reported raw activity for each enzyme–substrate pair is the average and standard deviation for n ≥ 4 unless otherwise noted. Normalized activity was calculated by defining the activity of each KDAC with the FRK^acWR peptide equal to 1. Statistical significance was determined by calculating p values using two-tailed t-tests, assuming similar variance. The significance threshold was set at p ≤ 0.01 with the Bonferroni correction for multiple testing. Kinetic parameters were determined for a subset of enzyme–substrate pairs. In these experiments, 50–200 nM KDAC was reacted with ≥5 substrate concentrations from 10 to 2500 nM and ≥3 timepoints at intervals of 3–20 min were collected for each substrate concentration. Deacetylation was measured using the same method as the endpoint experiments, and KM and kcat were calculated from the observed activity of each reaction as previously described.[18] Activity assays with peptides for verification of substrate preferences were performed as for endpoint experiments, except in a buffer also containing 100 mM KCl. Statistical analysis of the correlation of the presence of particular substrate residues with activity was performed using Fisher’s exact test with a significance threshold of p ≤ 0.05.
In contrast with the peptides tested thus far, which were all derivatives of a single substrate, these panels consisted of peptides derived from human proteins in which the lysine residue is known to be acetylated in cells.[3],[5],[42],[50]−[72] For each enzyme, peptides were included either because they contained an acetyllysine that has been identified as a putative substrate of the KDAC from published cellular studies and/or because the peptide contained a residue that appeared to drive KDAC activity in our analysis. For KDAC6, we observed that of the set of peptides that were tested, six contained tryptophan or tyrosine directly after the acetyllysine. Remarkably, all of these peptides appeared in the top seven most reactive substrates tested (Table 2). Assuming that phenylalanine would behave similarly to tryptophan and tyrosine, we determined that there was a statistically significant correlation between whether or not a peptide was deacetylated by KDAC6 and the presence of tyrosine, tryptophan, or phenylalanine in the +1 position (p = 0.011). […] Thus, our conclusion that the presence of these aromatic residues in the +1 position relative to the acetyllysine is a major factor promoting KDAC6 activity has predictive utility and provides some understanding of the underlying mechanistic basis.

[2] = biological target: T2, Full-length human KDAC8 (Homo sapiens, UniProt Q9BY41); assay: Activity of KDAC8 with putative substrate peptides (verification of substrate preferences); type: biochemical; settings: endpoint, 100 μM peptide, buffer also containing 100 mM KCl; for specific activity, KDAC8 with putative substrates: 50–200 nM KDAC, 25 °C, pH 7.6, 15–60 min, average ± SD, SD; for specific activity, KDAC8 with putative substrates (no activity above limit): limit of reliable detection 0.0004 s^–1
T2 construct: Full-length human KDAC8 (UniProtKB Q9BY41) was recombinantly expressed fused to a C-terminal His6 tag; TEV protease cleavage site (C); His6 (C); made in house; host or cells: Escherichia coli
T2 sequence (Q9BY41 1-377): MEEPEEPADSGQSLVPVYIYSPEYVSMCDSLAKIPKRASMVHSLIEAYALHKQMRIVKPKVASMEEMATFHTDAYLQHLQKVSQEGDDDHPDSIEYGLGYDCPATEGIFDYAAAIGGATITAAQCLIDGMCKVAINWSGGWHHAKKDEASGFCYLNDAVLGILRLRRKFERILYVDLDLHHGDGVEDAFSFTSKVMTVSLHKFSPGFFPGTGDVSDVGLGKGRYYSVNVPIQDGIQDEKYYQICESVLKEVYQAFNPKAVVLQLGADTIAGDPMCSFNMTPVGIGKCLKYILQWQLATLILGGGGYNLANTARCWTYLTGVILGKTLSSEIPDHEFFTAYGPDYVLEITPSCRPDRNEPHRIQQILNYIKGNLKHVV
Procedure: as §1
We performed a similar experiment for KDAC8, this time using substrates that have been described as potential KDAC8 substrates from cell-based studies or which contained residues in the +1 and/or +2 positions that were identified to enhance activity of KDAC8. […] In addition, we also considered phenylalanine, as we did for KDAC6. Here, we looked at the correlation between peptides having any of these features and activity. While the result was less striking than for KDAC6, there was still a positive correlation between the presence of the identified residues and activity (Table 3; p = 0.048). Although we have identified only a portion of the interactions that likely contribute to substrate selectivity for these enzymes, these interactions correlate with a statistically significant increase in activity with peptides from potential biological substrates in an unbiased background of residues in other positions.

Substance	specific activity, KDAC6 with putative substrates [1] [s^–1]	specific activity, KDAC6 with putative substrates (no activity above limit) [1]	other results
DLAK^acVQR [acetyllysine peptide from tubulin α-1A chain (P68369)]	–	– (– indicates no activity above the limit of reliable detection (0.0013 s^–1))	–
EIGK^acTLA	–	–	specific activity, KDAC8 with putative substrates (no activity above limit) [2]: – (– indicates no activity above the limit of reliable detection (0.0004 s^–1))
EVGK^acLLN [acetyllysine peptide from centromere protein F (P49454)]	–	–	specific activity, KDAC8 with putative substrates (no activity above limit) [2]: – (– indicates no activity above the limit of reliable detection (0.0004 s^–1))
FFHK^acVNE [acetyllysine peptide from Mitofusin-1 (Q8IWA4)]	–	– (– indicates no activity above the limit of reliable detection (0.0013 s^–1))	–
LGGK^acQRA [acetyllysine peptide from retinoic acid-induced protein 1 (Q7Z5J4)]	–	–	specific activity, KDAC8 with putative substrates [2]: 0.0006 ± 0.0004 s^–1
LISK^acIRE [acetyllysine peptide from tubulin β (Q13509)]	–	– (– indicates no activity above the limit of reliable detection (0.0013 s^–1))	–
PDRK^acPFP [acetyllysine peptide from E3 SUMO-protein ligase EGR2 (P11161)]	–	– (– indicates no activity above the limit of reliable detection (0.0013 s^–1))	–
PEAK^acSLL [acetyllysine peptide from RAC-α serine/threonine-protein kinase (P31749)]	–	– (– indicates no activity above the limit of reliable detection (0.0013 s^–1))	–
PLWK^acGIG [acetyllysine peptide from regulator of nonsense transcripts 1 (Q92900)]	–	–	specific activity, KDAC8 with putative substrates [2]: 0.0035 ± 0.0021 s^–1
PSPK^acVSD [acetyllysine peptide from tubulin β-3 chain (Q13509)]	–	– (– indicates no activity above the limit of reliable detection (0.0013 s^–1))	–
RFTK^acCLR [acetyllysine peptide from steroid hormone receptor ERR1 (P11474)]	–	–	specific activity, KDAC8 with putative substrates [2]: 0.0030 ± 0.0016 s^–1
RIPK^acEQW [acetyllysine peptide from ATP-dependent 6-phosphofructokinase, platelet type (Q01813)]	–	–	specific activity, KDAC8 with putative substrates [2]: 0.0031 ± 0.0015 s^–1
RMFK^acQFN [acetyllysine peptide from transcription intermediary factor 1-β (Q13263)]	–	–	specific activity, KDAC8 with putative substrates [2]: 0.015 ± 0.014 s^–1
SVRK^acGIM	–	– (– indicates no activity above the limit of reliable detection (0.0013 s^–1))	–
TLSK^acLHE [acetyllysine peptide from protein diaphanous homologue 3 (Q9NSV4)]	–	– (– indicates no activity above the limit of reliable detection (0.0013 s^–1))	–
VGGK^acDFE [acetyllysine peptide from PDZ and LIM domain protein 1 (O00151)]	–	–	specific activity, KDAC8 with putative substrates (no activity above limit) [2]: – (– indicates no activity above the limit of reliable detection (0.0004 s^–1))
VLEK^acLGE [acetyllysine peptide from serine/threonine-protein kinase 4 (Q13043)]	–	– (– indicates no activity above the limit of reliable detection (0.0013 s^–1))	–

The next lines start with results.

specific activity, KDAC6 with putative substrates [1] [s^–1]	Substance	specific activity, KDAC6 with putative substrates (no activity above limit) [1]	other results
0.20 ± 0.09	AFGK^acYCR	–	specific activity, KDAC8 with putative substrates [2]: 0.0029 ± 0.0004 s^–1
0.06 ± 0.03	GAGK^acHVP [acetyllysine peptide from tubulin α-1A chain (P68369)]	–	–
0.100 ± 0.009	GRAK^acYWL [acetyllysine peptide from E3 SUMO-protein ligase RanBP2 (P49792)]	–	specific activity, KDAC8 with putative substrates [2]: 0.007 ± 0.003 s^–1
0.011 ± 0.009	IIDK^acSQL [acetyllysine peptide from serine/threonine-protein kinase SIK2 (Q9H0K1)]	–	–
0.009 ± 0.007	LDHK^acFDL [acetyllysine peptide from tubulin α-1A chain (P68369)]	–	–
0.042 ± 0.009	LSGK^acGNP [acetyllysine peptide from catenin β-1 (P35222)]	–	–
0.022 ± 0.006	QATK^acDAG [acetyllysine peptide from heat shock 70 kDa protein 1A/1B (P0DMV8/P0DMV9)]	–	–
0.026 ± 0.024	TDGK^acVFQ [acetyllysine peptide from 60S ribosomal protein L24 (P83731)]	–	–
0.010 ± 0.006	YFSK^acHN [acetyllysine peptide from peroxiredoxin-2 (P32119), C-terminus, not amidated]	–	–
